This note sets out measurements from patent US20230149333A1, “COMPOSITIONS AND USES OF LOCALLY APPLIED SYNTHETIC AMINO ACID POLYMERS FOR PREVENTION AND TREATMENT OF VIRAL INFECTIONS” (Amicrobe, Inc., priority 2020, published 2023).

Assay [1] concerns Coronavirus (strain OC43). The assay can be described thus: Virucidal Suspension Test (In-Vitro Time-Kill method) based upon ASTM E1052-20. Here is the method:
(§1) The antiviral activities of Composition A and Composition B were evaluated by challenging them with two different viruses, Coronavirus (strain OC43, ZeptoMetrix Corp. #0810024CF) and Influenza A H1N1 (strain A/WS/33, ATCC #VR-1520). A Virucidal Suspension Test (In-Vitro Time-Kill method) based upon the ASTM E1052-20, “Standard Practice to Assess the Activity of Microbicides against Viruses in Suspension” was used. The percent and log10 reductions from the initial populations of the viral strains were determined following exposure to Compositions A and B at two different exposure times (2 minutes and 10 minutes).

The subject of assay [2] is Influenza A H1N1 (strain A/WS/33). The assay is described as above. The procedure: as §1

Turning to “Poly(L-lysine hydrochloride)-b-poly(L-leucine) [Composition B]”, the Log10 reduction in assay [1] (10 µg/mL, 2 min exposure) came to 0.25 log10; in assay [1] (10 µg/mL, 10 min exposure), 1 log10; in assay [1] (100 µg/mL, 2 min exposure), 0.75 log10; in assay [1] (100 µg/mL, 10 min exposure), 0.75 log10; in assay [1] (1000 µg/mL, 2 min exposure) it was 0.5 log10; in assay [1] (1000 µg/mL, 10 min exposure), 0.75 log10. Also, the Log10 reduction in assay [2] (10 µg/mL, 2 min exposure) is 0.75 log10; in assay [2] (10 µg/mL, 10 min exposure), 0.75 log10; in assay [2] (100 µg/mL, 2 min exposure), 0.50 log10; in assay [2] (100 µg/mL, 10 min exposure), 0.50 log10; in assay [2] (1000 µg/mL, 2 min exposure), 0.00 log10; in assay [2] (1000 µg/mL, 10 min exposure), 1.00 log10. Also, the Percent reduction worked out at 43.77% in assay [1] (10 µg/mL, 2 min exposure); 90% in assay [1] (10 µg/mL, 10 min exposure); 82.22% in assay [1] (100 µg/mL, 2 min exposure); 82.22% in assay [1] (100 µg/mL, 10 min exposure); 68.38% in assay [1] (1000 µg/mL, 2 min exposure); 82.22% in assay [1] (1000 µg/mL, 10 min exposure). The Percent reduction in assay [2] (10 µg/mL, 2 min exposure) was 82.22%; in assay [2] (10 µg/mL, 10 min exposure) it was 82.22%; in assay [2] (100 µg/mL, 2 min exposure), 68.38%; in assay [2] (100 µg/mL, 10 min exposure) it was 68.38%; in assay [2] (1000 µg/mL, 2 min exposure), 0.00%; in assay [2] (1000 µg/mL, 10 min exposure), 90.00%.

“Poly(L-lysine hydrochloride)-b-poly(D,L-leucine) [Composition A]”: the Log10 reduction in assay [1] (10 µg/mL, 2 min exposure) stood at 0.25 log10; in assay [1] (10 µg/mL, 10 min exposure) it was 0.5 log10; in assay [1] (100 µg/mL, 2 min exposure) it was 0.25 log10; in assay [1] (100 µg/mL, 10 min exposure), 0.5 log10; in assay [1] (1000 µg/mL, 2 min exposure) it was 0.5 log10; in assay [1] (1000 µg/mL, 10 min exposure), 1 log10. Besides, the Log10 reduction in assay [2] (10 µg/mL, 2 min exposure) was found to be 0.25 log10; in assay [2] (10 µg/mL, 10 min exposure), 0.50 log10; in assay [2] (100 µg/mL, 2 min exposure), 0.75 log10; in assay [2] (100 µg/mL, 10 min exposure), 0.75 log10; in assay [2] (1000 µg/mL, 2 min exposure), 0.75 log10; in assay [2] (1000 µg/mL, 10 min exposure) it was 0.50 log10. Also, the Percent reduction in assay [1] (10 µg/mL, 2 min exposure) turned out to be 43.77%; in assay [1] (10 µg/mL, 10 min exposure) it was 68.38%; in assay [1] (100 µg/mL, 2 min exposure), 43.77%; in assay [1] (100 µg/mL, 10 min exposure), 68.38%; in assay [1] (1000 µg/mL, 2 min exposure), 68.38%; in assay [1] (1000 µg/mL, 10 min exposure) it was 90%. In addition, the Percent reduction was found to be 43.77% in assay [2] (10 µg/mL, 2 min exposure); 68.38% in assay [2] (10 µg/mL, 10 min exposure); 82.22% in assay [2] (100 µg/mL, 2 min exposure); 82.22% in assay [2] (100 µg/mL, 10 min exposure); 82.22% in assay [2] (1000 µg/mL, 2 min exposure); 68.38% in assay [2] (1000 µg/mL, 10 min exposure).
